Measured values reported in paper PMC9503778, “Targeted Isolation of Antibiotic Brominated Alkaloids from the Marine Sponge Pseudoceratina durissima Using Virtual Screening and Molecular Networking” (Marine Drugs, 2022).
≈ marks a conversion by molar mass, not a printed value. Where “and” joins values, the source holds several entries; their conditions need not be identical. Equal values may be shown once. Read-outs that look alike come from different tables or passages of the source.

Key:
human red blood cells = assay: Haemolysis assay (CO-ADD); assay type: cell-based
[1] = tested on: K. pneumoniae (G-) strain ATCC 700603; assay: Antimicrobial growth inhibition (CO-ADD), K. pneumoniae; assay type: cell-based, Klebsiella pneumoniae; conditions: for % inhibition K. pneumoniae: 32 µg/mL; for inhibition at 32 µg/mL / MIC: Klebsiella pneumoniae
Method: (§1) Compounds 1−3 and 5−12 were assayed against a selection of medically important pathogenic microorganisms (MRSA, E. coli, K. pneumoniae, A. baumanii, P. aeruginosa, C. albicans, C. neoformans), Table 4. […] To the best of our knowledge this compound had not been tested against any drug resistant strain of Gram-positive bacterium until this study.
(§2) The antimicrobial activity testing was performed by the Community for Antimicrobial Drug Discovery (CO-ADD). Compounds were assayed against a range of both Gram negative and Gram positive bacteria (see Supplementary Materials S3) including methicillin-resistant Staphylococcus aureus (MRSA) (G+), Escherichia coli (G-), Klebsiella pneumoniae (G-), Acinetobacter baumannii (G-), Pseudomonas aeruginosa (G-) together with two species of fungus (Candida albicans and Cryptococcus neoformans).
(§3) S3. Antimicrobial activity testing methodology
(§4) The compounds submitted to CO-ADD were evaluated in duplicate (n = 2) against seven microorganisms (five bacteria and two fungi) at a concentration of 32 µg/mL in a 384-well, non-binding surface plate (NBS) for each bacterial/fungal strain, keeping the final DMSO concentration to a maximum of 1% DMSO. All bacteria were cultured in cation-adjusted Mueller-Hinton broth (CAMHB) at 37 °C overnight. A sample of each culture was then diluted 40-fold in fresh broth and incubated at 37 °C for 1.5-3 h. The resultant mid-log phase cultures were diluted (CFU/mL measured by OD600), then added to each well of the compound containing plates, giving a cell density of 5x10^5 CFU/mL and a total volume of 50 µL. All the plates were covered and incubated at 37 °C for 18 h without shaking. […] Inhibition of bacterial growth was determined measuring absorbance at 600 nm (OD600) using a Tecan M1000 Pro mon-ochromator plate reader. […]
(§5) 2 h. The absorbance was measured using a Biotek Synergy HTX plate reader. The percentage of growth inhibition was calculated for each well, using negative control (medium only) and positive control (bacteria without inhibitors) on the same plate as the references. The significance of inhibition values was determined by modified Z-scores, calculated using the median and MAD of the samples (no controls) on the same plate. Samples with inhibition value above 80% and Z-score above 2.5 for either replicate (n = 2 on different plates) were classed as actives.
(§6) Colistin and vancomycin were used as positive bacterial inhibitor standards for Gram-negative and Gram-positive bac-teria, respectively. Fluconazole was used as a positive fungal inhibitor standard for C. albicans and C. neoformans. The antibiotics were provided in four concentrations, with two above and two below its MIC value, and plated into the first eight wells of column 23 of the 384-well NBS plates. The quality control (QC) of the assays was determined by the antimicrobial controls and the Z’-factor (using positive and negative controls). Each plate was deemed to fulfil the qual- […]
(§7) full growth inhibition at their highest concentration, and no growth inhibition at their lowest concentration. The seven […]
(§8) test microorganisms were Staphylococcus aureus MRSA (ATCC 43300), Escherichia coli (ATCC 25922), Klebsiella pneu-moniae (ATCC 700603), Acinetobacter baumanii (ATCC19606), Pseudomonas aeruginosa (ATCC 27853), Candida albicans (ATCC 90028) and Cryptococcus neoformans var. grubii (H99; ATCC 208821).
(§9) S4. Anthelmintic activity testing methodology
(§10) Dose-response evaluations were carried out to estimate the half-maximal inhibitory concentrations (IC50 values) for compounds against Haemonchus contortus (Haecon-5 strain) exsheathed third-stage larvae (xL3s). H. contortus were maintained in experimental sheep and procured in accordance with the institutional animal ethics guidelines and the regulations of Australia (permit no. 1714374; University of Melbourne). Immediately prior to use, third-stage larvae (L3s) were exsheathed and sterilised by incubation in 0.15% (v/v) bleach at 38 °C for 20 min, followed by washes in […]

[2] = tested on: P. auruginosa (G-) strain ATCC 27853; assay: Antimicrobial growth inhibition (CO-ADD), P. aeruginosa; assay type: cell-based, Pseudomonas aeruginosa; conditions: for % inhibition P. aeruginosa: 32 µg/mL; for MIC / inhibition at 32 µg/mL: Pseudomonas aeruginosa
Method: as §1, §2, §3, §4, §5, §6, §7, §8, §9, §10

[3] = tested on: C. neoformans var. grubii strain ATCC 208821; assay: Antimicrobial growth inhibition (CO-ADD), C. neoformans; assay type: cell-based; conditions: Cryptococcus neoformans
[4] = tested on: zebrafish (Danio rerio) larvae at 5 dpf; assay: Zebrafish larvae spontaneous, unstimulated swimming bioassay; assay type: in vivo; conditions: for Spontaneous swimming, mean distance moved: 10 nM and 100 nM, compared with 1 nM
Method: (§11) For the zebrafish bioactivity assay, three experiments were performed on 5 days post fertilization (dpf) zebrafish larvae treated with methanol crude extracts from all four sponge specimens, using total distance moved as an endpoint metric. Spontaneous swimming experiments were performed according to the following protocol: allowing a 2 min acclimatization period in darkness followed by a 5 min darkness swimming period, where total distance moved was measured. Simulated predator response (SPR) experiments were performed involving a 2 min acclimatization period in light conditions, followed by 3 min in light free swimming and a measurement period of 3 mins in dark. Finally, a Larval Photo-motor Response (LPR) experiment was conducted beginning with 2 mins light acclimatization followed by three cycles of alternating photic stimulus (each cycle consisting of 4 min light –4 min dark conditions to assess the profile of the treatment across time, Figure 8.
(§12) Basal behavioral analysis was conducted on zebrafish (Danio rerio) larvae at 5 dpf using an in-house custom-built behavioral analysis system. All assays followed standard protocols as previously described.
(§13) Zebrafish were housed and bred in the AquaCore facility, Monash University, according to standard procedures. Larvae were maintained in E3 media (5mM NaCl, 0.17mM KCl, 0.33 mM CaCl2, 0.33 mM MgSO4, supplemented with 1 x 10 – 5% methylene blue as antimycotic).
(§14) Digital video processing and animal tracking was performed using Ethovision XT ver.16 (Noldus Inc., Wageningen, The Netherlands) using a standardized method as described before.
(§15) All data was averaged across replicate larvae for each treatment and control, respectively, and presented as mean ± SEM. Cumulative distance traveled by larvae was measured by summing the incremental distance moved by each larva between frames of video files. Statistical analysis and data presentation was performed using Prism 8 (GraphPad Software Inc., San Diego, CA, USA). Data sets were tested for outliers and normality of distribution, followed by either one-way or two-way ANOVA testing for significance. […] Where time point data was collected significance was compared for each time domain with that of vehicle controls. Significance was universally set to p < 0.05.

[5] = tested on: zebrafish (Danio rerio) larvae at 5 dpf; assay: Zebrafish larvae simulated predator response (SPR) bioassay; assay type: in vivo; conditions: for SPR, total distance moved vs vehicle control: p < 0.0001; for SPR, profile across concentrations: 10 nM
Method: as §11, §12, §13, §14, §15

[6] = tested on: zebrafish (Danio rerio) larvae at 5 dpf; assay: Zebrafish Larval Photo-motor Response (LPR) bioassay; assay type: in vivo; conditions: 1 nM, 10 nM and 100 nM
Method: as §11
Basal behavioral analysis was conducted on zebrafish (Danio rerio) larvae at 5 dpf using an in-house custom-built behavioral analysis system. […]
All data was averaged across replicate larvae for each treatment and control, respectively, and presented as mean ± SEM. Cumulative distance traveled by larvae was measured by summing the incremental distance moved by each larva between frames of video files. […]

S. aureus ATCC 25923 = tested on: S. aureus ATCC 25923; parameters: method as in PMID 8297426; conditions: cited from earlier work
S. aureus = tested on: S. aureus; parameters: method as in PMID 8297426; conditions: tested at 100 µg/mL; cited from earlier work
[7] = ATCC700603, read-out: % inhibition K. pneumoniae, 32 µg/mL, duplicate (n = 2) values
[8] = ATCC700603, ATCC 700603, read-out: MIC K. pneumoniae
[9] = ATCC27853, ATCC 27853, read-out: MIC P. aeruginosa
[10] = ATCC208821, var. grubii ATCC 208821, read-out: MIC C. neoformans
[11] = ATCC700603, 32 µg/mL, duplicate (n = 2) values, read-out: % inhibition K. pneumoniae
[12] = ATCC27853, read-out: % inhibition P. aeruginosa, 32 µg/mL, duplicate (n = 2) values

Structure (SMILES)	Haemolysis (HC10) (human red blood cells) [µg/mL]	% inhibition K. pneumoniae ([1]; duplicate (n = 2) values)	inhibition at 32 µg/mL [1, 7] [%]	MIC [1, 8] [µg/mL]	% inhibition P. aeruginosa ([2]; duplicate (n = 2) values)	MIC [2, 9] [µg/mL]	MIC [3, 10] [µg/mL]	Spontaneous swimming, total distance moved vs vehicle control ([4]; 1 nM, 5 dpf larvae, p < 0.0001)	Spontaneous swimming, mean distance moved [4]	inhibition at 32 µg/mL [1, 11] [%]	Spontaneous swimming, profile across concentrations ([4]; 1 nM, 10 nM, 100 nM)	other results
COC1=C(Br)[C@H](O)[C@@]2(C=C1Br)CC(C(=O)NCCCOc1c(Br)cc(CCN)cc1Br)=NO2 [Compound 11, araplysillin I]	>32	17.0%	12.2	> 32	0.3% and 8.0%	> 32	> 32	–	–	–	–	–
NC(=O)Cc1c(O)cc(Br)c(O)c1Br [Compound 9, subereaphenol A]	1.032	15.5% and 6.6%	–	> 32	–	> 32	> 32	significant hyperactivity	reduced mean distance moved	–	–	–
COc1c(Br)cc(CC#N)c(O)c1Br [Compound 8, 2-(3,5-dibromo-2-hydroxy-4-methoxyphenyl)acetonitrile]	>32	12.5%	–	> 32	6.8%	> 32	> 32	–	–	10.3	–	inhibition at 32 µg/mL ([2]; ATCC27853, 32 µg/mL, duplicate (n = 2) values, read-out: % inhibition P. aeruginosa): 11.2%
COC1=C(Br)[C@H](O)[C@@]2(C=C1Br)CC(C(=O)NCCCCCNC(=O)C1=NO[C@]3(C=C(Br)C(OC)=C(Br)[C@@H]3O)C1)=NO2 [Compound 3, homoaerothionin]	>32	6.6%	10.2	> 32	10.4% and 2.2%	> 32	> 32	significant hyperactivity	reduced mean distance moved	–	dose dependent hypoactivity effect	SPR, total distance moved vs vehicle control ([5]; 100 nM): Clear hyperactivity
COC1=C(Br)[C@H](O)[C@](O)(CC#N)C=C1Br [Compound 1, (+)-aeroplysinin-1]	>32	−2.8% and −3.3%	–	–	18.2%	–	–	significant hyperactivity effects	reduced mean distance moved	–	increased hypoactivity with higher concentrations	LPR, mean area under the curve across light and dark cycles vs vehicle control [6]: reduced hyperactivity at higher concentrations; MIC ([1]; ATCC700603, read-out: MIC K. pneumoniae): > 32 µg/mL; MIC against S. aureus ATCC 25923 (S. aureus ATCC 25923): 25 µg/mL (≈ 73.8 µM); inhibition at 32 µg/mL [2, 12]: 10.9%; MIC ([2]; ATCC27853, read-out: MIC P. aeruginosa): > 32 µg/mL; MIC ([3]; ATCC208821, read-out: MIC C. neoformans): > 32 µg/mL; inhibition zones in disc diffusion assays against S. aureus (S. aureus): large inhibition zones; SPR, profile across concentrations ([5]; 1 nM, 100 nM): increased hypoactivity with higher concentrations; SPR, total distance moved vs vehicle control ([5]; 1 nM): significant hyperactivity effects
COC1(OC)C(Br)=CC(O)(CC(N)=O)C=C1Br [Compound 6, 2-(3,5-dibromo-1-hydroxy-4,4-dimethoxycyclohexa-2,5-dien-1-yl)acetamide]	>32	6.4%	–	> 32	1.1% and 9.7%	> 32	> 32	–	–	12.3	–	Spontaneous swimming, total distance moved vs vehicle control ([4]; 10 nM, p < 0.0001): hyperactivity; Spontaneous swimming, total distance moved ([4]; 100 nM, p < 0.0001): curtailed
COC1=C(Br)[C@H](O)[C@@]2(C=C1Br)CC(C(=O)NCCCCNC(=O)C1=NO[C@]3(C=C(Br)C(OC)=C(Br)[C@@H]3O)C1)=NO2 [Compound 2, aerothionin]	>32	10.9%	–	> 32	–	> 32	> 32	–	–	10.4	biphasic distribution of mean movement data	Spontaneous swimming, total distance moved vs vehicle control ([4]; all three concentrations (1 nM, 10 nM, 100 nM)): no significant difference to the vehicle control; LPR, mean area under the curve across light and dark cycles vs vehicle control [6]: biphasic distribution of mean movement data; SPR, profile across concentrations ([5]; 1 nM, 100 nM): biphasic distribution of mean movement data
COC1=C(Br)[C@H](O)[C@@]2(C=C1Br)CC(C(=O)NCCCOc1c(Br)cc(CCNC(=O)C3=NO[C@]4(C=C(Br)C(OC)=C(Br)[C@@H]4O)C3)cc1Br)=NO2 [Compound 5, 11,17-deoxyfistularin-3]	>32	8.7%	6.5	> 32	7.2%	> 32	> 32	–	–	–	–	inhibition at 32 µg/mL [2, 12]: 4.3%
